Data from US6403554B2, “Polyunsaturated fatty acid derivatives and their use” (Ardenia Investments Ltd., priority 1998, dated 2002).

Columns and labels:
[1] = system: antibody-forming cells (AFC) in the spleen; experiment: Influence of compound on humoral immune response to sheep erythrocytes, C57B1/6 female mice (AFC in spleen, hemagglutinins); type: in vivo; conditions: for Amount of antibody-forming cells per 10^6 spleen cells / Amount of antibody-forming cells per spleen / Effect on relative amount of AFC (per 10^6 spleen cells) / Effect on total AFC amount (per spleen) / Effect on hemagglutinin titers / Spleen index: i.v.; for Amount of antibody-forming cells per 10^6 spleen cells / Amount of antibody-forming cells per spleen / Effect on relative amount of AFC (per 10^6 spleen cells) / Effect on total AFC amount (per spleen): 5th day; for Amount of antibody-forming cells per 10^6 spleen cells / Amount of antibody-forming cells per spleen: M ± SEM; for Effect on relative amount of AFC (per 10^6 spleen cells) / Effect on total AFC amount (per spleen) / Effect on hemagglutinin titers: vs control; for Spleen index: with SRBC i.p.
Procedure: The increase was calculated as compared with the amount of cells in the animals immunised only with sheep erythrocytes.
0.15 ml of compound 10 was administered intravenously to 6 mice females of CS7B1/6 line (weight 18-22 g) in doses of 45.5, 91 and 136.5 μg of compound 10 per capita for each testing group according to the dose. Simultaneously, a suspension of 5·10^7 sheep erythrocytes was injected intraperitoneally (0.2 ml per capita). Mice in the control group were injected intravenously with equal volume of saline. The effects of compound 10 on humoral immune response were analyzed both by counting the quantity of AFC in the spleen according to Cunningham (per 10^6 spleen cells and per spleen) and estimating the titers of hemagglutining antibodies in serum of the animals (Cunningham A. J., Nature, 1965, Vol.207, No 5001. P.1106-1107), while the titers of hemagglutinating antibodies were evaluated according to litterature (Evans J. et al., Cell, 1974; Vol 3., p.153-158, Feizi T., Menger E., Transfusion, 1970, Vol. 10, p.33-35,).
(§1) 0.15 ml of compound 11 was administered intravenously to 6 female mice of the C57B1/6 line (weight 18-22 g) in doses of 45.5, 91 and 136.5 μg of compound 11 per capita for each testing group according to the dose. Simultaneously, a suspension of 5·10^7 sheep erytrocytes was injected intraperitoneally (0.2 ml per capita). Mice in the control group were injected intravenously with an equal volume of saline. The effects of compound 11 on humoral immune response was analysed both by counting the quantity of AFC in the spleen according to Cunningham (per 10^6 spleen cells and per spleen) and estimating the titers of hemagglutining antibodies in serum of the animals.
as §1, with “12” for “11”, “erythrocytes” for “erytrocytes”, “analyzed” for “analysed”
as §1, with “compound 8” for “compound 11”, “sheep erythrocytes” for “sheep erytrocytes”, “Mice of” for “Mice in”, “response were analyzed” for “response was analysed”
0.15 ml of compound 3 was administered intravenously to 6 female mice of the C57B1/6 line (weight 18-22 g) in doses of 45.5, 91 and 136.5 μg of compound 3 per capita for each testing group according to the dose. Simultaneously, a suspension of 5·10^7 sheep erytrocytes was injected intraperitoneally (0.2 ml per capita). Mice of the control group were injected intravenously with equal volume of saline.

[2] = system: antibody-forming cells (AFC) in the spleen; experiment: Influence of human AFP/compound complex and compound alone on humoral immune response, C57B1/6 male mice; type: in vivo; conditions: compound alone, 5th day
Procedure: The influence of complexes of AFP with one of the title compounds 1-4, 1a-4a, 5-20 as well as their basic components on humoral immune response was estimated by counting the quantity of antibody-forming cells (AFC) in the mice spleen.
(§2) 0.15 ml of AFP/Compound 3 complex was administered intravenously to 6 mice males of C57B1/6 line (weight 18-22 g) in the dose of […] of AFP and 45.5 μg of compound 3 per capita. Simultaneously suspension of 5·10^7 sheep erythrocytes was injected intraperitoneally (0.2 ml per capita). In the group with compound 3 mice were injected intravenously by one in the dose of 45.5 μg. Animals of group with AFP received 9 μg of AFP. Mice of control group were injected intravenously with equal volume of saline. Complex AFP/Compound 3 effect on humoral immune response was analyzed by counting the quantity of AFC in the spleen according to Cunningham (per 10^6 spleen cells and per spleen).
(§3) 0.15 ml of AFP/Compound 2a complex (1:100) was administered intravenously to 6 mice males of C57B1/6 line (weight 18-22 g) in the dose of 9 μg of AFP and 45.5 μg of compound 2a per capita. Simultaneously, a suspension of 5·10^7 sheep erythrocytes was injected intraperitoneally (0.2 ml per capita). In the group with compound 2a mice were injected intravenously by one in the dose of 45.5 μg. Animals of group with AFP received 9 μg of AFP. Mice in the control group were injected intravenously with an equal volume of saline. The effect of the AFP/Compound 2a complex on humoral immune response was analyzed by counting the quantity of AFC in the spleen according to Cunningham (per 10^6 spleen cells and per spleen).
(§4) 0.15 ml of AFP/Compound 10 complex (1:200) was administered intravenously to 6 male mice of C57B1/6 line (weight 18-22 g) in the dose of 9 μg of AFP and 91 μg of compound 10 per capita. Simultaneously, a suspension of 5·10^7 sheep erythrocytes was injected intraperitoneally (0.2 ml per capita). In the group receiving compound 10 mice were injected intravenously by one in the dose of 91 μg. Animals in the group with AFP received 9 μg of AFP. Micein the control group were injected intravenously with an equal volume of saline. The effect of the AFP/Compound 10 complex on humoral immune response was analyzed by counting the quantity of AFC in the spleen according to Cunningham (per 10^6 spleen cells and per spleen).
as §4, with “AFP/Compound 14” for “AFP/Compound 10”, “compound 14” for “compound 10”, “group with” for “group receiving”, “Animals of” for “Animals in the”, “AFP. Mice in” for “AFP. Micein”

[3] = system: antibody-forming cells (AFC) in the spleen; experiment: Influence of AFP/compound complexes and their components on humoral immune response (AFC in spleen); type: in vivo, C57B1/6 mice; conditions: compound in a complex with AFP
Procedure: as §2, §3, §4
as §4, with “AFP/Compound 14” for “AFP/Compound 10”, “compound 14” for “compound 10”, “group with” for “group receiving”, “Animals of” for “Animals in the”, “AFP. Mice in” for “AFP. Micein”
0.15 ml of AFP/Compound 7 complex (1:200) was administered intravenously to 6 male mice of C57B1/6 line (weight 18-22 g) in the dose of 9 μg of AFP and 91 μg of compound 7 per capita. Simultaneously, a suspension of 5·10^7 sheep erythrocytes was injected intraperitoneally (0.2 ml per capita). In the group with compound 7 mice were injected intravenously by one in the dose of 91 μg. Animals of group with AFP received 9 μg of AFP. Mice of control group were injected intravenously with equal volume of saline. AFP/Compound 7 complex effect on humoral immune response was analyzed by counting the quantity of AFC in the spleen according to Cunningham (per 10^6 spleen cells and per spleen).
0.15 ml of AFP/Compound 15 complex (1:200) was administered intravenously to 6 mice males of C57B1/6 line (weight 18-22 g) in the dose of 9 μg of AFP and 91 μg of compound 15 per capita. Simultaneously, a suspension of 5·10^7 sheep erythrocytes was injected intraperitoneally (0.2 ml per capita). In the group receiving compound 15, the mice were injected intravenously by one in the dose of 91 μg. Animals in the AFP-group received 9 μg of AFP. […]

[4] = system: hemagglutinating antibodies in serum; experiment: Humoral immune response: titers of hemagglutinating antibodies in serum; type: in vivo, C57B1/6 mice; conditions: serum, female mice
[5] = system: antibody-forming cells (AFC) in the spleen; experiment: Humoral immune response: counting antibody-forming cells (AFC) in the spleen according to Cunningham, mice immunised with sheep erythrocytes; type: in vivo, C57B1/6 mice; conditions: compound alone

| Structure (SMILES) | Amount of antibody-forming cells per 10^6 spleen cells ([1]; 45.5 μg/mouse) | Amount of antibody-forming cells per spleen ([1]; 45.5 μg/mouse) | Effect on relative amount of AFC (per 10^6 spleen cells) ([1]; 45.5 μg/mouse) | Effect on total AFC amount (per spleen) ([1]; 45.5 μg/mouse) | Effect on hemagglutinin titers ([1]; 45.5 μg/mouse) | Spleen index ([1]; 45.5 μg/mouse) | Amount of antibody-forming cells per 10^6 spleen cells ([1]; 91 μg/mouse) | Amount of antibody-forming cells per spleen ([1]; 91 μg/mouse) | Effect on hemagglutinin titers ([1]; 91 μg/mouse) | Spleen index ([1]; 91 μg/mouse) | Amount of antibody-forming cells per 10^6 spleen cells ([1]; 136.5 μg/mouse) | Amount of antibody-forming cells per spleen ([1]; 136.5 μg/mouse) | Effect on hemagglutinin titers ([1]; 136.5 μg/mouse) | Spleen index ([1]; 136.5 μg/mouse) | other results |
| --- | --- | --- | --- | --- | --- | --- | --- | --- | --- | --- | --- | --- | --- | --- | --- |
| CC/C=C\C/C=C\C/C=C\C/C=C\C/C=C\CCCC(=O)N[C@@H](COP(=O)(O)O)C(=O)O [Compound 14, N-(cis-5,8,11,14,17-eicosapentaenoyl)-O-phospho-L-serine] | 554.6±52.0 cells per 10^6 spleen cells | 70.8±10.8 × 10^3 | −10.9 p > 0.05% | −1.5 p > 0.05% | −9,7 p > 0.05% | 6.5 ± 0.2 10^−3 | 645.8±64.4 cells per 10^6 spleen cells | 80.8±12.7 × 10^3 | −2,8 p > 0.05% | 6.2 ± 0.2 10^−3 | 946.1±41.9 cells per 10^6 spleen cells | 108.6±10.8 × 10^3 | 0% | 6.5 ± 0.3 10^−3 | Effect on relative amount of AFC (per 10^6 spleen cells) ([1]; 91 μg/mouse): +3.8 p > 0.05%; Effect on total AFC amount (per spleen) ([1]; 91 μg/mouse): +12.4 p > 0.05%; immunostimulating action ([1]; 136.5 μg/mouse): marked immunostimulating action; Immunogenic activity ([1]; 45.5 and 91 μg/mouse): no immunogenic activity; relative amount of AFC ([2]; 91 μg/mouse i.v.): 645.8±64.4 cells per 10^6 spleen cells; total AFC amount ([2]; 91 μg/mouse i.v.): 80.8±12.7 × 10^3 |
| CC1=C(/C=C/C(C)=C/C=C/C(C)=C\C(=O)N[C@@H](COP(=O)(O)O)C(=O)O)C(C)(C)CCC1 (stereo in doubt) [Compound 2a, N-(13-cis-Retinoyl)-O-phospho-L-serine] | 264.5±19.9 cells per 10^6 spleen cells | 34.0±2.6 × 10^3 | −12.8 p > 0.05% | −15.0 p > 0.05% | −7.7 p > 0.05% | 6.4 ± 0.2 10^−3 | 585.6±51.6 cells per 10^6 spleen cells | 59.4±5.2 × 10^3 | −3.8 p > 0.05% | 6.5 ± 0.2 10^−3 | 639.8±54.6 cells per 10^6 spleen cells | 68.3±6.1 × 10^3 | +5.1 p > 0.05% | 7.4 ± 0.4 10^−3 | Immunogenic activity ([1]; 45.5 μg/mouse): no immunogenic activity; immunostimulating effect in vivo in micelle form ([1]; 91 μg/mouse): display immunostimulating effect in vivo; immunostimulating action ([1]; 91 and 136.5 μg/mouse): marked immunostimulating action; relative amount of AFC ([2]; 45.5 μg/mouse i.v.): 264.5±19.9 cells per 10^6 spleen cells; total AFC amount ([2]; 45.5 μg/mouse i.v.): 34.0±2.6 × 10^3 |
| CC1=C(/C=C/C(C)=C/C=C/C(C)=C/C(=O)N[C@H](C(=O)O)[C@@H](C)OP(=O)(O)O)C(C)(C)CCC1 (relative stereo) [Compound 3, N-(all-trans-retinoyl)-o-phospho-L-threonine] |  |  |  |  |  |  |  |  |  |  |  |  |  |  | Dose at which immunostimulating effect in vivo is displayed [3]: 45.5 μg/mouse; Amount of hemagglutinins ([4]; 45.5 μg/mouse i.v.): 6.6 ± 0.2 Log2 T; Amount of hemagglutinins ([4]; 91 μg/mouse i.v.): 8.0 ± 0.3 Log2 T; Amount of hemagglutinins ([4]; 136.5 μg/mouse i.v.): 8.7 ± 0.3 Log2 T; Dose at which immunostimulating effect in vivo is displayed (micelle form) [5]: 91 μg/mouse |
